pIC50: −log10 of the molar value. Active and inactive are the calls of the source. The rule behind the calls is not given here.
What was measured:
[1] = tested on: MV4-11; test: Induction of apoptosis in human MV4-11 cells assessed as necrotic cells at 250 nM after 6 hrs by AnnexinV-FITC/propidium iodide staining based flow cytometry (reference value: 0.16 %); format: functional
[2] = tested on: MV4-11; test: Induction of apoptosis in human MV4-11 cells assessed as necrotic cells at 1 nM after 6 hrs by AnnexinV-FITC/propidium iodide staining based flow cytometry (reference value: 0.16 %); format: functional
[3] = tested on: MOLM-13; test: Antiproliferative activity against human MOLM-13 cells incubated for 72 hrs by MTT assay; format: functional, cell-based; settings: MOLM-13, 72 h
[4] = tested on: MV4-11; test: Induction of apoptosis in human MV4-11 cells assessed as necrotic cells at 1000 nM after 6 hrs by AnnexinV-FITC/propidium iodide staining based flow cytometry (reference value: 0.16 %); format: functional
[5] = target: T1, Protein cereblon/Cyclin-dependent kinase 9 (Homo sapiens, UniProt P50750+Q96SW2); test: Protac activity at CRBN/CDK9 in human MV4-11 cells assessed as induction of CDK9 degradation at 250 nM pretreated for 2 hrs with proteasome inhibitor, MG132 followed by incubation with compound for 6 hrs by western blot analysis; format: cell-based
[6] = tested on: MV4-11; test: Induction of apoptosis in human MV4-11 cells assessed as viable cells at 250 nM after 6 hrs by AnnexinV-FITC/propidium iodide staining based flow cytometry (reference value: 90.1 %); format: functional; settings: read-out: Activity
[7] = tested on: MV4-11; test: Induction of apoptosis in human MV4-11 cells assessed as early apoptotic cells at 30 nM after 6 hrs by AnnexinV-FITC/propidium iodide staining based flow cytometry (reference value: 5.36 %); format: functional
[8] = tested on: MV4-11; test: Induction of apoptosis in human MV4-11 cells assessed as total apoptotic cells at 30 nM after 6 hrs by AnnexinV-FITC/propidium iodide staining based flow cytometry (reference value: 9.75 %); format: functional
[9] = tested on: MV4-11; test: Induction of apoptosis in human MV4-11 cells assessed as late apoptotic cells at 1 nM after 6 hrs by AnnexinV-FITC/propidium iodide staining based flow cytometry (reference value: 4.29%); format: functional
[10] = tested on: MV4-11; test: Induction of apoptosis in human MV4-11 cells assessed as total apoptotic cells at 250 nM after 6 hrs by AnnexinV-FITC/propidium iodide staining based flow cytometry (reference value: 9.75 %); format: functional
[11] = tested on: MV4-11; test: Induction of apoptosis in human MV4-11 cells assessed as early apoptotic cells at 250 nM after 6 hrs by AnnexinV-FITC/propidium iodide staining based flow cytometry (reference value: 5.36 %); format: functional
[12] = tested on: MV4-11; test: Induction of apoptosis in human MV4-11 cells assessed as viable cells at 1000 nM after 6 hrs by AnnexinV-FITC/propidium iodide staining based flow cytometry (reference value: 90.1 %); format: functional; settings: read-out: Activity
[13] = tested on: MV4-11; test: Induction of apoptosis in human MV4-11 cells assessed as viable cells at 30 nM after 6 hrs by AnnexinV-FITC/propidium iodide staining based flow cytometry (reference value: 90.1 %); format: functional; settings: read-out: Activity
[14] = tested on: MV4-11; test: Induction of apoptosis in human MV4-11 cells assessed as late apoptotic cells at 1000 nM after 6 hrs by AnnexinV-FITC/propidium iodide staining based flow cytometry (reference value: 4.29%); format: functional
[15] = tested on: MV4-11; test: Induction of apoptosis in human MV4-11 cells assessed as viable cells at 500 nM after 6 hrs by AnnexinV-FITC/propidium iodide staining based flow cytometry (reference value: 90.1 %); format: functional; settings: read-out: Activity
[16] = target: T1, Protein cereblon/Cyclin-dependent kinase 9; test: Protac activity at CRBN/CDK9 in human MV4-11 cells assessed as CDK9 degradation rate at 500 nM incubated for 6 hrs by Western blot assay relative to control; format: cell-based
[17] = target: T1, Protein cereblon/Cyclin-dependent kinase 9; test: Protac activity at CRBN/CDK9 in human MV4-11 cells assessed as induction of CDK9 degradation incubated for 6 hrs by Western blot assay; format: cell-based
[18] = tested on: MV4-11; test: Induction of apoptosis in human MV4-11 cells assessed as late apoptotic cells at 500 nM after 6 hrs by AnnexinV-FITC/propidium iodide staining based flow cytometry (reference value: 4.29%); format: functional
[19] = tested on: MV4-11; test: Induction of apoptosis in human MV4-11 cells assessed as total apoptotic cells at 1 nM after 6 hrs by AnnexinV-FITC/propidium iodide staining based flow cytometry (reference value: 9.75 %); format: functional
[20] = tested on: MV4-11; test: Induction of apoptosis in human MV4-11 cells assessed as total apoptotic cells at 100 nM after 6 hrs by AnnexinV-FITC/propidium iodide staining based flow cytometry (reference value: 9.75 %); format: functional
[21] = tested on: MV4-11; test: Induction of apoptosis in human MV4-11 cells assessed as late apoptotic cells at 30 nM after 6 hrs by AnnexinV-FITC/propidium iodide staining based flow cytometry (reference value: 4.29%); format: functional
[22] = target: T1, Protein cereblon/Cyclin-dependent kinase 9; test: PROTAC activity at CRBN/CDK9 in human MV4-11 cells assessed as reduction in CDK9 protein expression at 100 nM measured after 3 hrs by whole proteome mass spectrometry; format: cell-based
[23] = target: T1, Protein cereblon/Cyclin-dependent kinase 9; test: Protac activity at CRBN/CDK9 in human MV4-11 cells assessed as induction of CDK9 degradation at 250 nM pretreated for 2 hrs with E3 ligase cereblon ligand, pomalidomide followed by incubation with compound for 6 hrs by western blot analysis; format: cell-based
[24] = tested on: MV4-11; test: Induction of apoptosis in human MV4-11 cells assessed as necrotic cells at 100 nM after 6 hrs by AnnexinV-FITC/propidium iodide staining based flow cytometry (reference value: 0.16 %); format: functional
[25] = target: T1, Protein cereblon/Cyclin-dependent kinase 9; test: PROTAC activity at CRBN/CDK9 in human MV4-11 cells assessed as reduction in RNA PolII CTD phosphorylation at Ser5 residue measured after 6 hrs by western blot analysis; format: cell-based; settings: dose 31.25-8000 nM
[26] = Half life in BALB/c nude mouse xenografted with human MV4-11 cells at 5 mg/kg, iv by LC/MS/MS analysis; format: ADME, organism-based; settings: in vivo
[27] = tested on: MV4-11; test: Induction of apoptosis in human MV4-11 cells assessed as viable cells at 1 nM after 6 hrs by AnnexinV-FITC/propidium iodide staining based flow cytometry (reference value: 90.1 %); format: functional; settings: read-out: Activity
[28] = target: T1, Protein cereblon/Cyclin-dependent kinase 9; test: Protac activity at CRBN/CDK9 in human MV4-11 cells assessed as induction of CDK9 degradation by measuring downregulation of MCL-1 protein expression level at 250 nM by western blot analysis; format: cell-based; settings: time 1-12 hrs, TDE = time-dependent effect
[29] = target: T1, Protein cereblon/Cyclin-dependent kinase 9; test: Protac activity at CRBN/CDK9 in human MV4-11 cells assessed as induction of CDK9 degradation at 250 nM pretreated for 2 hrs with CDK9 inhibitor, […] followed by incubation with compound for 6 hrs by western blot analysis; format: cell-based
[30] = tested on: MV4-11; test: Induction of apoptosis in human MV4-11 cells assessed as early apoptotic cells at 1000 nM after 6 hrs by AnnexinV-FITC/propidium iodide staining based flow cytometry (reference value: 5.36 %); format: functional
[31] = tested on: MV4-11; test: Induction of apoptosis in human MV4-11 cells assessed as late apoptotic cells at 100 nM after 6 hrs by AnnexinV-FITC/propidium iodide staining based flow cytometry (reference value: 4.29%); format: functional
[32] = tested on: MV4-11; test: Induction of apoptosis in human MV4-11 cells assessed as late apoptotic cells at 250 nM after 6 hrs by AnnexinV-FITC/propidium iodide staining based flow cytometry (reference value: 4.29%); format: functional

COc1cc(F)ccc1-c1ncnc(Nc2cccc(CS(C)(=O)=NC(=O)CCCCCCCC(=O)NCCNc3cccc4c3C(=O)N(C3CCC(=O)NC3=O)C4=O)c2)n1 (configuration not stated)
Activity [1]: 0.47%
Activity [2]: 0.77%
pIC50 [3]: 6.92
Activity [4]: 0.4%
Activity [5]: inactive
viability at 0.25 µM [6]: 40.1%
Activity [7]: 7.46%
Activity [8]: 22.3%
Activity [9]: 14%
Activity [10]: 59.4%
Activity [11]: 45.1%
viability at 1 µM [12]: 28.2%
viability at 0.03 µM [13]: 77.6%
Activity [14]: 16%
viability at 0.5 µM [15]: 31.3%
Activity [16]: 100%
DC50 [17]: 7.62 nM
Activity [18]: 13.7%
Activity [19]: 22.1%
Activity [20]: 26.8%
Activity [21]: 14.8%
Activity [22]: Active
Activity [23]: inactive
Activity [24]: 0.47%
Activity [25]: Dose-Dependent Effect
half-life [26]: 1.3 h
viability at 0.001 µM [27]: 79.1%
Activity [28]: Tde
Activity [29]: inactive
Activity [30]: 54.4%
Activity [31]: 15.3%
Activity [32]: 14.3%
